Measured values published in ChEMBL document CHEMBL1201862, “PubChem BioAssay data set” (2004).
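48-hour exposure; five concentrations; linearly interpolated endpoints. Abbreviation: GI50, concentration required for 50% inhibition of growth.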 Calls of active or inactive are those of the source. No stated cut-off is given here; in the data, active = GI50 up to about 1.1 µM and inactive = higher.

Assays:
Test in all cases: NCI tumour cell line growth inhibition, 48 h
IGROV-1 = tested on: IGROV-1
UO-31 = tested on: UO-31
T47D = tested on: T47D
SF-295 = tested on: SF-295
LOX IMVI = tested on: LOX IMVI
DU-145 = tested on: DU-145
EKVX = tested on: EKVX
HCC 2998 = tested on: HCC 2998
OVCAR-8 = tested on: OVCAR-8
SK-OV-3 = tested on: SK-OV-3
OVCAR-3 = tested on: OVCAR-3
SNB-75 = tested on: SNB-75
Malme-3M = tested on: Malme-3M
RPMI-8226 = tested on: RPMI-8226
SR = tested on: SR
MDA-MB-231 = tested on: MDA-MB-231
UACC-257 = tested on: UACC-257
UACC-62 = tested on: UACC-62
U-251 = tested on: U-251
MCF7 = tested on: MCF7

SMILES | GI50 (IGROV-1) | GI50 (UO-31) | GI50 (T47D) | GI50 (SF-295) | GI50 (LOX IMVI) | GI50 (DU-145) | GI50 (EKVX) | GI50 (HCC 2998) | GI50 (OVCAR-8) | GI50 (SK-OV-3) | GI50 (OVCAR-3) | GI50 (SNB-75) | GI50 (Malme-3M) | GI50 (RPMI-8226) | GI50 (SR) | GI50 (MDA-MB-231) | GI50 (UACC-257) | GI50 (UACC-62) | GI50 (U-251) | GI50 (MCF7)
Cc1ccc(OC(=O)N2C/C(=C\c3ccccc3)C(=O)/C(=C/c3ccccc3)C2)cc1 | 40.7 µM (inactive) | 36.9 µM (inactive) | > 100 µM (inactive) | 18.7 µM (inactive) | 3.29 µM (inactive) | > 100 µM (inactive) | > 100 µM (inactive) | 10 µM (inactive) | 19.6 µM (inactive) | 41.3 µM (inactive) | 25.6 µM (inactive) | 23 µM (inactive) | > 76 µM (inactive) | 0.403 µM (active) | 3.43 µM (inactive) | 26.7 µM (inactive) | 40.6 µM (inactive) | 23.5 µM (inactive) | 9.25 µM (inactive) | 5.14 µM (inactive)
CCOP(=O)(OCC)C(Nc1cccc(F)c1)c1ccccc1 (stereo not given) | > 100 µM (inactive) | 44.8 µM (inactive) | 22.7 µM (inactive) | 54.7 µM (inactive) | 75.7 µM (inactive) | > 100 µM (inactive) | 40.5 µM (inactive) | 66.1 µM (inactive) | 62.2 µM (inactive) | > 100 µM (inactive) | 60.5 µM (inactive) | 20.7 µM (inactive) | 50.7 µM (inactive) | 29.7 µM (inactive) | 38.9 µM (inactive) | 75.5 µM (inactive) | 45.1 µM (inactive) | 63 µM (inactive) | 74.1 µM (inactive) | 76.6 µM (inactive)
CC(=O)C(=[N+]=[N-])C(=O)N1CCOC1=O | > 10 µM (inactive) | > 10 µM (inactive) | > 10 µM (inactive) | > 10 µM (inactive) | > 10 µM (inactive) | > 10 µM (inactive) | > 10 µM (inactive) | > 10 µM (inactive) | > 10 µM (inactive) | > 10 µM (inactive) | > 10 µM (inactive) | > 10 µM (inactive) | > 10 µM (inactive) | > 10 µM (inactive) | > 10 µM (inactive) | > 10 µM (inactive) | > 10 µM (inactive) | > 10 µM (inactive) | > 10 µM (inactive) | > 10 µM (inactive)
CC(C)(CO)CNc1cc(=O)[nH]c(N)n1 | > 100 µM (inactive) | > 100 µM (inactive) | > 100 µM (inactive) | > 100 µM (inactive) | > 100 µM (inactive) | > 100 µM (inactive) | > 100 µM (inactive) | > 100 µM (inactive) | > 100 µM (inactive) | > 100 µM (inactive) | > 100 µM (inactive) | > 100 µM (inactive) | > 100 µM (inactive) | > 100 µM (inactive) | > 100 µM (inactive) | > 100 µM (inactive) | > 100 µM (inactive) | > 100 µM (inactive) | > 100 µM (inactive) | > 100 µM (inactive)
CC(=O)OC(CC(C)C)P1(=O)N(CC(C)(C)C)[C@@H]2CCCC[C@H]2N1CC(C)(C)C (stereo not given in full) | 11.7 µM (inactive) | 8.65 µM (inactive) | 5.36 µM (inactive) | 7.5 µM (inactive) | 11.9 µM (inactive) | 15.3 µM (inactive) | 11.2 µM (inactive) | 6.38 µM (inactive) | 8.2 µM (inactive) | 15.1 µM (inactive) | 9.23 µM (inactive) | 7.55 µM (inactive) | 9.33 µM (inactive) | 4.01 µM (inactive) | 10.2 µM (inactive) | 7.24 µM (inactive) | 8.41 µM (inactive) | 10.1 µM (inactive) | 7.08 µM (inactive) | 6.35 µM (inactive)
OC(Cc1cccnc1)(c1ccccc1)c1ccccc1 | > 100 µM (inactive) | > 100 µM (inactive) | 59 µM (inactive) | 53.8 µM (inactive) | > 100 µM (inactive) | > 100 µM (inactive) | 17.8 µM (inactive) | > 100 µM (inactive) | > 100 µM (inactive) | > 100 µM (inactive) | > 100 µM (inactive) | > 100 µM (inactive) | > 100 µM (inactive) | 42.9 µM (inactive) | 58.7 µM (inactive) | > 100 µM (inactive) | 41.3 µM (inactive) | 91.6 µM (inactive) | > 100 µM (inactive) | > 100 µM (inactive)
